For 13 molecules, IC50 results are on record in patent US9309263B2, “Fused multi-cyclic sulfone compounds as inhibitors of beta-secretase and methods of use thereof” (AMGEN INC., priority 2013, dated 2016).

The target of experiment [1] is Beta Secretase enzyme (BACE) (Homo sapiens, UniProt P56817). Kind of experiment: In vitro enzymatic BACE FRET assay. Type of experiment: biochemical. To be noted: average IC50; read-out: BACE1 FRET assay IC50. The method, then: In Vitro Enzymatic BACE FRET (Fluorescence Resonance Energy Transfer) Assay (Enzyme Assay Data in the Example Table I)
Chain of Beta Secretase enzyme (BACE) (P56817 46-501): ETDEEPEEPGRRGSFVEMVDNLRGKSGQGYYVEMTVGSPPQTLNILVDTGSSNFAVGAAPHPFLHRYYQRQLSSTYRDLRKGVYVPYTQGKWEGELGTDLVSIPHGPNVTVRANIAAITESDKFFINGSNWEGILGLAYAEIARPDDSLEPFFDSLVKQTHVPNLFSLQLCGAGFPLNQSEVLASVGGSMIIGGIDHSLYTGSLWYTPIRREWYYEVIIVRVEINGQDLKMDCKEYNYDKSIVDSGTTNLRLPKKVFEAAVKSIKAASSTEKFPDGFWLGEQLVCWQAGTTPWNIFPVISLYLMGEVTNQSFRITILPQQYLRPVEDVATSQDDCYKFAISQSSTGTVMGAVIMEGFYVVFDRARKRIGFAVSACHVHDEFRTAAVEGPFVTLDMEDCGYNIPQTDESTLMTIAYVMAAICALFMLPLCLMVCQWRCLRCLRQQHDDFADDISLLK
The assay buffer used in this screen is 0.05 M acetate, pH 4.2, 10% DMSO final, 100 uM genapol (which is a nonionic detergent, below its Critical Micelle Concentration). The Beta Secretase enzyme (0.2 nM) is pre-incubated for one hour with inhibitors, typically in about 1 uL of DMSO according to a serial dilution, are added thereto. This assay is effectively started by the addition of FRET substrate (50 nM) and the combination is incubated for one hour. The FRET assay is terminated with by addition of Tris buffer, which raises the pH to neutrality, and the fluorescence is determined. The FRET substrate is a peptide with commercially available fluorophore and quencher, on opposite sides of the BACE cleavage site. Proteolytic cleavage of the FRET substrate releases quenching of fluorescence (excitation 488 nm and […]).

For experiment [2], the system named is Aβ 40 in conditioned medium of cells stably expressing Amyloid Precursor Protein (APP). Kind of experiment: In vitro BACE cell-based assay (Aβ 40 sandwich ELISA). The note with it: Homo sapiens, HEK293; HEK cell; average IC50. The procedure: In Vitro BACE Cell-Based Assay
The cell-based assay measures inhibition or reduction of […] in conditioned medium of test compound treated cells expressing amyloid precursor protein.
Cells stably expressing Amyloid Precursor Protein (APP) were plated at a density of 40K cells/well in 96 well plates (Costar). The cells were cultivated for 24 hours at 37° C. and 5% CO2 in DMEM supplemented with 10% FBS. The test compounds were then added to cells in 10-point dose response concentrations with the starting concentration being either 100 μM or 10 μM. The compounds were diluted from stock solutions in DMSO and the final DMSO concentration of the test compounds on cells was 0.1%. After 24 h of incubation with the test compounds the supernatant conditioned media was collected and the Aβ 40 levels were determined using a sandwich ELISA. The IC50 of the compound was calculated from the percent of control or percent inhibition of Aβ 40 as a function of the concentration of the test compound.
The sandwich ELISA to detect Aβ 40 was performed in 96 well microtiter plates, which were pre-treated with goat anti-rabbit IgG (Pierce). The capture and detecting antibody pair that were used to detect Aβ 40 from cell supernatants were affinity purified pAb40 (Biosource) and biotinylated 6E10 (Signet Labs Inc.), respectively. The optimal concentration for the pAb40 antibody was 3 μg/ml in Superblock/TBS (Pierce) that was supplemented with 0.05% Tween 20 (Sigma). Optimal concentration for the detection antibody 6E10-biotinylated was 0.5 μg/ml in Superblock/TBS (Pierce) that had been supplemented with 2% normal goat serum and 2% normal mouse serum.
Cellular supernatants were incubated with the capture antibody for 3 h at 4° C., followed by 3 wash steps in TBS-tween (0.05%). The detecting antibody incubation was for 2 h at 4° C., again followed by the wash steps as described previously. The final readout of the ELISA is Time-Resolved Fluorescence (counts per minute) using Delfia reagents Streptavidin-Europium and Enhancement solutions (Perkin Elmer) and the Victor 2 multilabel counter (Perkin Elmer).
A general note: In an ELISA, binding on a coated surface is turned into a signal by an enzyme label.

The target of experiment [3] is Cathepsin D (Cat D) (Homo sapiens, UniProt P07339). Put plainly: In vitro enzymatic Cathepsin D (Cat D) FRET assay. Type of experiment: biochemical. The procedure: In Vitro Enzymatic Cathepsin D (Cat D) FRET (Fluorescence Resonance Energy Transfer) Assay
Chain of Cathepsin D (Cat D) (P07339 65-412, species assumed): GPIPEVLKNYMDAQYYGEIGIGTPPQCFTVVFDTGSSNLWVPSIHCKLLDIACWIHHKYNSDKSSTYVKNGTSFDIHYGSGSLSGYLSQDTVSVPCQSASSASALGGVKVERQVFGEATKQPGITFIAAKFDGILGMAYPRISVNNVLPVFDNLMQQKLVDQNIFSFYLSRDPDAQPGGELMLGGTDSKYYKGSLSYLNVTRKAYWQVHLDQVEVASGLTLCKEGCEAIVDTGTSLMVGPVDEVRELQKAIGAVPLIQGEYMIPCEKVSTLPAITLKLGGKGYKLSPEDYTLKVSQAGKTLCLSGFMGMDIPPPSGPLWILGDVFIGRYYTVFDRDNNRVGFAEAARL
Recombinant Cat D was expressed in CHO cells. The assay buffer for CathepsinD is 0.05 M citrate pH 3.5, 10% DMSO final, 5 mM CHAPS. The Cat D enzyme (9 nM) is pre-incubated for one hour with inhibitors, typically in about 1 uL of DMSO according to a serial dilution, is added thereto. The assays are effectively started by the addition of different FRET substrates (20 nM for Cat D) and the combination is incubated for one hour. The FRET assay is terminated with by addition of Tris buffer, which raises the pH to neutrality, and the fluorescence is determined. The FRET substrate is a peptide with commercially available fluorophore and quencher, on opposite sides of the BACE cleavage site. The Cat D substrate peptide sequence is based on sequence #1 of Table 1 from Gulnik et al. FEBS Letters v413 p 379-384 1997. Proteolytic cleavage of the FRET substrate releases quenching of fluorescence (Cat D excitation 500 nm and emission 580 nm). […]
See, for instance, examples 8, 12, 15, 16, 18, 21-23, 24, 25, 26, 29, 30, 32, 41-42, 45, 53, 54, 57, 63, 67-69, 72-74, 76, 79-81, 83 & 84 (to point to just a few; referring to data in Table 2). […] See, for instance, examples 8, 12, 15, 18, 21-23, 25, 29, 30, 32, 41-42, 45, 54, 57, 67-68, 72-73, 76, 80-81, 84, 86, 91-92 & 100 (to point out those from compound examples 1-100; and with reference to data in Table 2).

Where [4] appears, read: text summary referring to data in Table 2.

Where two headings read alike, the source gives them in different places.

Regarding `CC1(C)C(N)=N[C@]2(C)c3cc(NC(=O)c4ncc(Cl)cc4Cl)ccc3OCC[C@H]2S1(=O)=O` [Example 24, N-((4aR,11bR)-2-amino-3,3,11b-trimethyl-4,4-dioxido-4a,5,6,11b-tetrahydro-3H-[1]benzoxepino[4,5-b][1,4]thiazin-10-yl)-3,5-dichloro-2-pyridinecarboxamide], the IC50 (as a rule, the concentration that inhibits the measured activity by half) in experiment [1] is 3 nM; in experiment [2] it was 1 nM; in experiment [3] (read-out: CatD IC50) it was 969 µM; in experiment [3] (setting [4]), above 800 µM.

Turning to `CC1(C)C(N)=N[C@]2(C)c3cc(NC(=O)c4ncc(C(F)(F)F)cc4Cl)ccc3OCC[C@H]2S1(=O)=O` [Example 25, N-((4aR,11bR)-2-amino-3,3,11b-trimethyl-4,4-dioxido-4a,5,6,11b-tetrahydro-3H-[1]benzoxepino[4,5-b][1,4]thiazin-10-yl)-3-chloro-5-(trifluoromethyl)-2-pyridinecarboxamide], the IC50 in experiment [1] is 7 nM; in experiment [2], 2 nM; in experiment [3] (read-out: CatD IC50) it was 3530 µM; in experiment [3] (setting [4]), above 1200 µM.

On to `Cc1cc(Cl)cnc1C(=O)Nc1ccc2c(c1)[C@@]1(C)N=C(N)C(C)(C)S(=O)(=O)[C@@]1(C)CCO2` [Example 26, N-((4aS,11bR)-2-amino-3,3,4a,11b-tetramethyl-4,4-dioxido-4a,5,6,11b-tetrahydro-3H-[1]benzoxepino[4,5-b][1,4]thiazin-10-yl)-5-chloro-3-methyl-2-pyridinecarboxamide], for which the half-maximal inhibitory concentration (IC50) is 3 nM in experiment [1], 1 nM in experiment [2], 995 µM in experiment [3] (read-out: CatD IC50) and above 800 µM in experiment [3] (setting [4]).

`Cc1cc(Cl)cnc1C(=O)Nc1ccc2c(c1)[C@@]1(C)N=C(N)C(C)(C)S(=O)(=O)[C@]1(C)CCO2` [Example 27, N-((4aR,11bR)-2-amino-3,3,4a,11b-tetramethyl-4,4-dioxido-4a,5,6,11b-tetrahydro-3H-[1]benzoxepino[4,5-b][1,4]thiazin-10-yl)-5-chloro-3-methyl-2-pyridinecarboxamide]: the IC50 worked out at 150 nM in experiment [1], 264 nM in experiment [2] and 553 µM in experiment [3] (read-out: CatD IC50).

Turning to `Cc1c(C(=O)Nc2ccc3c(c2)[C@@]2(C)N=C(N)C(C)(C)S(=O)(=O)[C@@H]2CCO3)nc2ccc(Cl)cn12` [Example 28, N-((4aR,11bR)-2-amino-3,3,11b-trimethyl-4,4-dioxido-4a,5,6,11b-tetrahydro-3H-[1]benzoxepino[4,5-b][1,4]thiazin-10-yl)-6-chloro-3-methylimidazo[1,2-a]pyridine-2-carboxamide], the IC50 was 28 nM in experiment [1], 8 nM in experiment [2] and above 400 µM in experiment [3] (read-out: CatD IC50).

As for `CCc1ccc(C(=O)Nc2ccc3c(c2)[C@@]2(C)N=C(N)C(C)(C)S(=O)(=O)[C@@H]2CCO3)nc1` [Example 29, N-((4aR,11bR)-2-amino-3,3,11b-trimethyl-4,4-dioxido-4a,5,6,11b-tetrahydro-3H-[1]benzoxepino[4,5-b][1,4]thiazin-10-yl)-5-ethyl-2-pyridinecarboxamide], the IC50 was 38 nM in experiment [1], 10 nM in experiment [2], 1370 µM in experiment [3] (read-out: CatD IC50) and above 1200 µM in experiment [3] (setting [4]).

As to `CC1(C)C(N)=N[C@]2(C)c3cc(NC(=O)c4cc5ccccc5cn4)ccc3OCC[C@H]2S1(=O)=O` [Example 30, N-((4aR,11bR)-2-amino-3,3,11b-trimethyl-4,4-dioxido-4a,5,6,11b-tetrahydro-3H-[1]benzoxepino[4,5-b][1,4]thiazin-10-yl)-3-isoquinolinecarboxamide], the IC50 in experiment [1] is 84 nM; in experiment [2], 58 nM; in experiment [3] (read-out: CatD IC50) it was 1080 µM; in experiment [3] (setting [4]) it was above 1200 µM.

Take `CCc1cc(Cl)cnc1C(=O)Nc1ccc2c(c1)[C@@]1(C)N=C(N)C(C)(C)S(=O)(=O)[C@@H]1CCO2` [Example 31, N-((4aR,11bR)-2-amino-3,3,11b-trimethyl-4,4-dioxido-4a,5,6,11b-tetrahydro-3H-benzo[6,7]oxepino[4,5-b][1,4]thiazin-10-yl)-5-chloro-3-ethylpicolinamide]: the IC50 in experiment [1] came to 15 nM; in experiment [2], 16 nM; in experiment [3] (read-out: CatD IC50), 226 µM.

For the molecule `COc1cnc(C(=O)Nc2ccc3c(c2)[C@@]2(C)N=C(N)C(C)(C)S(=O)(=O)[C@H]2CCC3)c(C)c1` [Example 32, N-((4aS,11bR)-2-amino-3,3,11b-trimethyl-4,4-dioxido-3,4a,5,6,7,11b-hexahydrobenzo[3,4]cyclohepta[1,2-b][1,4]thiazin-10-yl)-5-methoxy-3-methyl-2-pyridinecarboxamide], the IC50 was 73 nM in experiment [1], 21 nM in experiment [2], 1340 µM in experiment [3] (read-out: CatD IC50) and above 1200 µM in experiment [3] (setting [4]).

As to `CC1(C)C(N)=N[C@]2(C)c3cc(Nc4nccc5cc(C#N)cnc45)ccc3CCC[C@@H]2S1(=O)=O` [Example 33, 8-(((4aS,11bR)-2-amino-3,3,11b-trimethyl-4,4-dioxido-3,4a,5,6,7,11b-hexahydrobenzo[3,4]cyclohepta[1,2-b][1,4]thiazin-10-yl)amino)-1,7-naphthyridine-3-carbonitrile], the IC50 was 29 nM in experiment [1], 97 nM in experiment [2] and 286 µM in experiment [3] (read-out: CatD IC50).

With `CC1(C)C(N)=N[C@]2(C)c3cc(Nc4nccc5cc(Cl)cnc45)ccc3CCC[C@@H]2S1(=O)=O` [Example 34, (4aS,11bR)-N^~10^~-(3-chloro-1,7-naphthyridin-8-yl)-3,3,11b-trimethyl-3,4a,5,6,7,11b-hexahydrobenzo[3,4]cyclohepta[1,2-b][1,4]thiazine-2,10-diamine 4,4-dioxide], the half-inhibitory concentration (IC50) came to 71 nM in experiment [1], 464 nM in experiment [2] and 409 µM in experiment [3] (read-out: CatD IC50).

On to `Cc1cc(C(F)F)cnc1C(=O)Nc1ccc2c(c1)[C@@]1(C)N=C(N)C(C)(C)S(=O)(=O)[C@H]1CCC2` [Example 35, N-((4aS,11bR)-2-amino-3,3,11b-trimethyl-4,4-dioxido-3,4a,5,6,7,11b-hexahydrobenzo[3,4]cyclohepta[1,2-b][1,4]thiazin-10-yl)-5-(difluoromethyl)-3-methyl-2-pyridinecarboxamide], for which the IC50 in experiment [1] was 49 nM; in experiment [2], 23 nM; in experiment [3] (read-out: CatD IC50) it was above 400 µM.

Take `CC1(C)C(N)=N[C@]2(C)c3cc(NC(=O)c4ncc(Cl)cc4Cl)ccc3CCC[C@@H]2S1(=O)=O` [Example 36, N-((4aS,11bR)-2-amino-3,3,11b-trimethyl-4,4-dioxido-3,4a,5,6,7,11b-hexahydrobenzo[3,4]cyclohepta[1,2-b][1,4]thiazin-10-yl)-3,5-dichloro-2-pyridinecarboxamide]: the IC50 was 62 nM in experiment [1], 290 nM in experiment [2] and above 400 µM in experiment [3] (read-out: CatD IC50).
